Results: ChEMBL document CHEMBL3045392, “Synthesis and fungicidal evaluation of some new anilinopyrimidine derivatives” (2013)

What was measured:
Type in all cases: functional
Aspergillus niger [1] = experiment: Fungicidal activity against Aspergillus niger assessed as growth inhibition at 10 ug/ml after 7 days; settings: 168 h, read-out: IZ
Aspergillus niger [2] = experiment: Fungicidal activity against Aspergillus niger assessed as growth inhibition at 100 ug/ml after 7 days; settings: 168 h, read-out: IZ
Aspergillus niger [3] = experiment: Fungicidal activity against Aspergillus niger assessed as growth inhibition at 50 ug/ml after 7 days; settings: 168 h, read-out: IZ
Aspergillus niger [4] = experiment: Fungicidal activity against Aspergillus niger assessed as growth inhibition at 1000 ug/ml after 7 days; settings: 168 h, read-out: IZ
Aspergillus niger [5] = experiment: Fungicidal activity against Aspergillus niger assessed as time required for hyphae to burst at 2.5 ug/ml
Aspergillus niger [6] = experiment: Fungicidal activity against Aspergillus niger assessed as time required for hyphae to burst at 5 ug/ml
Aspergillus niger [7] = experiment: Fungicidal activity against Aspergillus niger assessed as time required for hyphae to burst at 10 ug/ml
Aspergillus niger [8] = experiment: Fungicidal activity against Aspergillus niger assessed as time required for hyphae to burst at 7.5 ug/ml

SMILES | zone of inhibition at 10 µg/mL (Aspergillus niger [1]) | zone of inhibition at 100 µg/mL (Aspergillus niger [2]) | zone of inhibition at 50 µg/mL (Aspergillus niger [3]) | zone of inhibition at 1000 µg/mL (Aspergillus niger [4]) | Time (Aspergillus niger [5]) | Time (Aspergillus niger [6]) | Time (Aspergillus niger [7]) | Time (Aspergillus niger [8])
Cc1nc(Nc2ccccc2)nc2c1C(=N)C(C#N)CN(C(=O)c1ccccc1)C2 (configuration not stated) | 1 mm | 1.33 mm | 1.02 mm | 2.1 mm |  |  |  | 
Cc1cc(CBr)nc(Nc2ccccc2)n1 | 1.5 mm | 2 mm | 1.9 mm | 2.2 mm |  |  |  | 
Cc1nc(Nc2ccccc2)nc(C)c1Br | 1.6 mm | 2.5 mm | 2.1 mm | 2.9 mm |  |  |  | 
Cc1nc(Nc2ccccc2)nc(C)c1C#N | 1.4 mm | 1.9 mm | 1.7 mm | 2.5 mm |  |  |  | 
CC(=O)N(c1ccccc1)c1nc(C)cc(C)n1 [N-ACETYL PYRIMETHANIL] | 2.1 mm | 2.7 mm | 2.4 mm | 3.4 mm | 9 s | 18 s | 51 s | 32 s
Cc1cc(C)nc(Nc2ccccc2)n1 [PYRIMETHANIL] | 2.6 mm | 3.2 mm | 2.9 mm | 4 mm | 12 s | 21 s | 56 s | 39 s
